The source of these data is patent US20210379062A1, “The use of a H3R inverse agonist for the treatment of excessive daytime sleepiness associated with parkinson's disease (PD)” (Novartis AG, priority 2018, published 2021).

Data set [1] can be described thus: PK model (two-compartment, NONMEM) fitted to Phase I SAD/MAD concentrations. The format is in vivo, human. Here is the method:
PK data (drug concentration over time) from Part 1 and Part 2 of the Phase I study were used in the development of the model: • 1) Part 1 is the Single Ascending Dose part; 8 different cohorts were used, with each cohort composed of 6 active subjects and 2 placebo subjects. The dose amounts used in the 8 cohorts were 0.3, 1, 3, 10, 30, 100, 300 and 800 mg. Dosing was performed at time equal to 0 hours. Additional data from the Part 3 of the Phase I study (Mechanistic biomarker study, 100 mg single dose) were lumped with this group. • 2) Part 2 is the Multiple Ascending Dose part; 4 different cohorts were used, with each cohort composed of 9 active subjects and 3 placebo subjects. The dose amounts used in the 4 cohorts were 10, 30, 50 and 100 mg. Dosing was performed once a day (in the morning) at times equal to 0, 2, 3, 4, 5, 6, 7, 8, 9, 10, 11, 12, 13, 14, 15 days.
The analysis was performed using NONMEM VII version 3 (Icon Development Solutions, Ellicott City, Md., USA), utilizing the MODESIM high performance computing environment. Pirana software was used for model editing and model submission to the cluster for running. All model building was performed using the first order conditional estimation with interaction (FOCEi) method.
A two-compartment model with combined zeroth-order and first-order absorption was used to fit the Compound (I) concentrations. The disposition kinetics were modeled using a parameterization involving apparent oral clearance (CL/F), apparent central volume (Vc/F), apparent inter-compartment clearance (Q/F), and apparent peripheral volume (Vp/F). The duration of zero-order absorption (D), a first order absorption rate constant (Ka) and an absorption delay parameter (Lag) were used to characterize the absorption process.
Between-subject variability in pharmacokinetic parameters Vc/F, CL/F, Vp/F and Ka was modeled using multiplicative exponential random effects of the form:
Residual variability was modeled using a proportional error model: […]

Data set [2] deals with T1, Human histamine H3 receptor (Homo sapiens, UniProt Q9Y5N1).
T1 construct: purchased PerkinElmer
T1 sequence (Q9Y5N1 whole entry): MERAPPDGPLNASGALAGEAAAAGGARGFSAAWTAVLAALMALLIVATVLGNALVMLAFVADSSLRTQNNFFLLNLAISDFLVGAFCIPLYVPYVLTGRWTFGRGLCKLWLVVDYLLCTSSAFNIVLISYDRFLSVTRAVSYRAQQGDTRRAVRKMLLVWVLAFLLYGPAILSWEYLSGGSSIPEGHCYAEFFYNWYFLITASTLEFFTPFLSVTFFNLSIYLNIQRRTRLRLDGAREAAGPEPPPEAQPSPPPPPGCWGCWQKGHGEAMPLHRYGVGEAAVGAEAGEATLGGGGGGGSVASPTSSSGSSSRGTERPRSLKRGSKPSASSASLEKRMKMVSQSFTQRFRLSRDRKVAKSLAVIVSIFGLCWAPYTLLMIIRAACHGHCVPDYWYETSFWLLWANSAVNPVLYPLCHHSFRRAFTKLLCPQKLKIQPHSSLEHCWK
Put plainly: Radioligand binding assay with [3H]-N-α-methylhistamine. How it is done:
Human histamine H3 receptor membrane (PerkinElmer) were incubated with 1.0 nM [^3H]—N-α-methylhistamine (PerkinElmer) in the presence or absence of increasing concentrations of ligands for H3 receptor competition binding. The binding incubations were in a final volume of 0.1 ml buffer (50 mMTris pH 7.5, 5 mM MgCl2) at 28° C. for 120 minutes. Thioperamide (10 μM) was used to define non-specific binding.
All binding reactions were terminated by transferring 70 μl binding reaction from the reaction plate into filtration plates (Zeba 96-well Spin Desalting Plates, Thermo Scientific), followed by centrifugation at 1000 g for 2 min to collect the protein with bound radioligand. 200 μl of microscint-40 were added to determine the bound radiolabel by a Wallac Microbeta Trilux 2450 (Perkin Elmer). For all radioligand competition binding assays, IC50 values and Hill slopes were determined by GraphPad Prism: log(inhibitor) vs. response with variable slope. Ki was calculated using the equation in Biochem. Pharmacol. 1973. 22 (23), 3099-3108, from Cheng and Prusoff: Ki=IC50/{1+([radioligand]/Kd)}.

A short description of the next data set: Rat brain and plasma PK. It counts as in vivo. Conditions: 10 mg/kg oral, rats.
For data set [3], the system named is tele-methylhistamine (tMeHA). Put plainly: Ex vivo PD determination: brain tele-methylhistamine time course in rats. Also noted: species or system rat. Conditions: 10 mg/kg oral. How it is done: Male Sprague-Dawley rats (Shanghai SLAC Laboratory Animal Co. LTD) of 6-7 weeks age were used. Animals were housed in a temperature and humidity-controlled environment on a 12 h light/dark. All animals had free access to food and water. All procedures were approved by Institutional Animal Care and Use Committee of ChemPartner Co., LTD (IACUC Protocol NO: A998HL0002).
For bioanalysis of brain tissue tele-methylhistamine samples were further processed.
One aliquot of the stock solution was diluted using ethanol/phosphate buffer pH 7.4 (85:15, v/v) to achieve a series working solutions. The brain homogenate was centrifuged at 12000 rpm for 5 min at 4° C. Then 10 μL supernatant of the brain homogenate sample was added to 60 μL internal standard (d3-1-methyl-histamine, 20 ng/mL). The mixture was vortexed for 2 min and centrifuged at 12000 rpm for 5 min at 4° C. Finally, 60 μL supernatant was added and 3 μL supernatant was injected into LC-MS/MS for analysis (Agilent 6410, triple quadrupole mass spectrometer, Mobile phase A: H2O— 0.1% NH3, Mobile phase B: methanol— 0.1% NH3, Column: Ultimate XB-C18 (2.1×50 mm, 5 μm, Flow rate: 0.45 mL/min, temperature: 40° C.).

As for `Cn1nc(N2CCC(OC(=O)N3CCN(C4CCC4)CC3)CC2)ccc1=O` [Compound (I), 1-(1-methyl-6-oxo-1,6-dihydropyridazin-3-yl)piperidin-4-yl 4-cyclobutylpiperazine-1-carboxylate], in data set [1] (PK model estimate), the “CL/F (apparent oral clearance)” value was 22.8 L/h, the “D (duration of zero-order absorption)” value was 0.108 h, the “Ka (first-order absorption rate constant)” value was 2.44 h⁻¹ and the “Lag (absorption delay)” value is 0.214 h. Further, in data set [1] (PK model estimate), the “Q/F (apparent inter-compartment clearance)” value is 1.26 L/h, the “Residual Unexplained Variability” value is recorded as 34.8%, the “VC/F (apparent central volume)” value is on record as 121 L and the “VP/F (apparent peripheral volume)” value was 18.4 L. For the same molecule, in data set [1] (between-subject variability), the “Omega CL/F” value turned out to be 40.37 % CV, the “Omega Ka” value amounted to 145 % CV, the “Omega Vc/F” value amounted to 23.71 % CV and the “Omega Vp/F” value was 46.48 % CV. Further, in data set [2] (human H3 receptors), the “affinity fold higher compared to bavisant” value turned out to be 12 fold and the “affinity fold higher compared to pitolisant” value is given as 18 fold. Also, the Ki in data set [2] (human recombinant H3R, 1.0 nM [3H]-N-α-methylhistamine, Cheng-Prusoff) turned out to be 8.5 nM. The total brain exposure entry in the data set “Rat brain and plasma PK” was “intermediate”. Moreover, in “Rat brain and plasma PK” (8 h time point), the brain exposure entry is “close to detection limit”. Moreover, the concentration at 4 h in “Rat brain and plasma PK” (male, Sprague-Dawley, rat, brain, 4 h time point, read-out: brain exposure) is 21 ng/g. Also, in data set [3], the “time at which tMeHA increase starts” value was 30 min and the “time of tMeHA peak” value amounted to 2 h. Further, the “tMeHA level at 8 h” value in data set [3] (8 h) is recorded as “stayed slightly elevated”. Besides, the “effect on tMeHA levels” value in data set [3] (brain) is on record as “increased”. For the same molecule, the “duration of histamine release after compound administration” value in data set [3] (deconvolution of the PD data) is “about 2 h”.

A word on the Ki: it is the equilibrium dissociation constant of an inhibitor or competing ligand from its target.
